Data as given in patent US9371280B2, “Substituted pyrrolidine-2-carboxamides” (Hoffmann-La Roche Inc., priority 2012, dated 2016).
pIC50: −log10 of the molar value. Structures can show the parent of a compound that is named as a salt. Where two headings read alike, the source gives them in different places.

Target: interaction between p53 and MDM2 proteins (recombinant GST-tagged MDM2) (Homo sapiens, UniProt Q00987)
Assay: HTRF assay of inhibition of the p53-MDM2 interaction (GST-MDM2 / biotinylated p53 peptide);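 also: FRET read-out from Eu-labelled anti-GST antibody to streptavidin-APC, with 90 nM N-terminally biotinylated p53 peptide and 160 ng/ml GST-MDM2 in Tris-borate saline containing 1 mM DTT, 384-well format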
Format: binding

Sequence of interaction between p53 and MDM2 proteins (recombinant GST-tagged MDM2) (Q00987 whole entry): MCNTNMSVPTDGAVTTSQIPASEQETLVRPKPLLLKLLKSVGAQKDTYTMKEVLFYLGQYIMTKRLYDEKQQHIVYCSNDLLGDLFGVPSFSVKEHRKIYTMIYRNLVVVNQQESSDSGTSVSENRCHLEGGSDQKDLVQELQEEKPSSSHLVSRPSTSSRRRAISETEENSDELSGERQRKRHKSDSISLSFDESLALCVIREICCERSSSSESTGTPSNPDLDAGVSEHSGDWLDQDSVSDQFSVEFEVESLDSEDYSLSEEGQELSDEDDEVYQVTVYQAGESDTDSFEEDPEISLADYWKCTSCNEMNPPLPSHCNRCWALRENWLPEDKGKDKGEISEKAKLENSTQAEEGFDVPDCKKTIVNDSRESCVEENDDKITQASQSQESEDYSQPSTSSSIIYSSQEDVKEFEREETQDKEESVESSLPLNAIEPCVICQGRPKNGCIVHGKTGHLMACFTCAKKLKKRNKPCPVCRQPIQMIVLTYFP

Row | SMILES | pIC50 (HTRF, 0.02% BSA, 37° C. 1 h) | pIC50
1 | COc1cc(C(=O)OCC(=O)N(C)C)ccc1NC(=O)[C@@H]1N[C@@H](CC(C)(C)C)[C@](C#N)(c2ccc(Cl)cc2F)[C@H]1c1cccc(Cl)c1F [Example 24, 4-{[(2R,3S,4R,5S)-4-(4-Chloro-2-fluoro-phenyl)-3-(3-chloro-2-fluoro-phenyl)-4-cyano-5-(2,2-dimethyl-propyl)-pyrrolidine-2-carbonyl]-amino}-3-methoxy-benzoic acid dimethylcarbamoylmethyl ester, hydrochloride] | 7.86 | 
2 | COc1cc(C(=O)OCC(C)N2CCOCC2)ccc1NC(=O)[C@@H]1N[C@@H](CC(C)(C)C)[C@](C#N)(c2ccc(Cl)cc2F)[C@H]1c1cccc(Cl)c1F (stereo partly drawn) [Example 25, 4-{[(2R,3S,4R,5S)-4-(4-Chloro-2-fluoro-phenyl)-3-(3-chloro-2-fluoro-phenyl)-4-cyano-5-(2,2-dimethyl-propyl)-pyrrolidine-2-carbonyl]-amino}-3-methoxy-benzoic acid 2-morpholin-4-yl-propyl ester, hydrochloride] | 7.81 | 
3 | COc1cc(C(=O)NCCN2CCN(C)CC2)ccc1NC(=O)[C@@H]1N[C@@H](CC(C)(C)C)[C@](C#N)(c2ccc(Cl)cc2F)[C@H]1c1cccc(Cl)c1F [Example 26, (2R,3S,4R,5S)-4-(4-Chloro-2-fluoro-phenyl)-3-(3-chloro-2-fluoro-phenyl)-4-cyano-5-(2,2-dimethyl-propyl)-pyrrolidine-2-carboxylic acid {2-methoxy-4-[2-(4-methyl-piperazin-1-yl)-ethylcarbamoyl]-phenyl}-amide, hydrochloride] | 8.06 | 
4 | COc1cc(C(=O)N(C)C)ccc1NC(=O)[C@@H]1N[C@@H](CC(C)(C)C)[C@](C#N)(c2ccc(Cl)cc2F)[C@H]1c1cccc(Cl)c1F [Example 27, (2R,3S,4R,5S)-4-(4-Chloro-2-fluoro-phenyl)-3-(3-chloro-2-fluoro-phenyl)-4-cyano-5-(2,2-dimethyl-propyl)-pyrrolidine-2-carboxylic acid (4-dimethylcarbamoyl-2-methoxy-phenyl)-amide] | 7.89 | 
5 | COc1cc(C(=O)OC[C@H](O)[C@@H](O)[C@H](O)[C@H](O)CO)ccc1NC(=O)[C@@H]1N[C@@H](CC(C)(C)C)[C@](C#N)(c2ccc(Cl)cc2F)[C@H]1c1cccc(Cl)c1F [Example 28, 4-{[(2R,3S,4R,5S)-4-(4-Chloro-2-fluoro-phenyl)-3-(3-chloro-2-fluoro-phenyl)-4-cyano-5-(2,2-dimethyl-propyl)-pyrrolidine-2-carbonyl]-amino}-3-methoxy-benzoic acid (2S,3R,4R,5R)-2,3,4,5,6-pentahydroxy-hexyl ester] | 8.22 | 
6 | COc1cc(C(=O)OCCOC(=O)CNC(=O)OC(C)(C)C)ccc1NC(=O)[C@@H]1N[C@@H](CC(C)(C)C)[C@](C#N)(c2ccc(Cl)cc2F)[C@H]1c1cccc(Cl)c1F [Example 29, 4-{[(2R,3S,4R,5S)-4-(4-Chloro-2-fluoro-phenyl)-3-(3-chloro-2-fluoro-phenyl)-4-cyano-5-(2,2-dimethyl-propyl)-pyrrolidine-2-carbonyl]-amino}-3-methoxy-benzoic acid 2-(2-tert-butoxycarbonylamino-acetoxy)-ethyl ester] | 7.78 | 
7 | COc1cc(C(=O)OCCOC(=O)CN)ccc1NC(=O)[C@@H]1N[C@@H](CC(C)(C)C)[C@](C#N)(c2ccc(Cl)cc2F)[C@H]1c1cccc(Cl)c1F [Example 30, 4-{[(2R,3S,4R,5S)-4-(4-Chloro-2-fluoro-phenyl)-3-(3-chloro-2-fluoro-phenyl)-4-cyano-5-(2,2-dimethyl-propyl)-pyrrolidine-2-carbonyl]-amino}-3-methoxy-benzoic acid 2-(2-amino-acetoxy)-ethyl ester] | 7.76 | 
8 | COc1cc(C(=O)OCCOC(=O)CN(C)C(=O)OC(C)(C)C)ccc1NC(=O)[C@@H]1N[C@@H](CC(C)(C)C)[C@](C#N)(c2ccc(Cl)cc2F)[C@H]1c1cccc(Cl)c1F [Example 31, 4-{[(2R,3S,4R,5S)-4-(4-Chloro-2-fluoro-phenyl)-3-(3-chloro-2-fluoro-phenyl)-4-cyano-5-(2,2-dimethyl-propyl)-pyrrolidine-2-carbonyl]-amino}-3-methoxy-benzoic acid 2-[2-(tert-butoxycarbonyl-methyl-amino)-acetoxy]-ethyl ester] | 7.86 | 
9 | CNCC(=O)OCCOC(=O)c1ccc(NC(=O)[C@@H]2N[C@@H](CC(C)(C)C)[C@](C#N)(c3ccc(Cl)cc3F)[C@H]2c2cccc(Cl)c2F)c(OC)c1 [Example 32, 4-{[(2R,3S,4R,5S)-4-(4-Chloro-2-fluoro-phenyl)-3-(3-chloro-2-fluoro-phenyl)-4-cyano-5-(2,2-dimethyl-propyl)-pyrrolidine-2-carbonyl]-amino}-3-methoxy-benzoic acid 2-(2-methylamino-acetoxy)-ethyl ester, hydrochloride] | 7.79 | 
10 | COc1cc(C(=O)OCCOC(=O)[C@@H](NC(=O)[C@H](C)N(C)C(=O)OC(C)(C)C)C(C)C)ccc1NC(=O)[C@@H]1N[C@@H](CC(C)(C)C)[C@](C#N)(c2ccc(Cl)cc2F)[C@H]1c1cccc(Cl)c1F [Example 33, 4-{[(2R,3S,4R,5S)-4-(4-Chloro-2-fluoro-phenyl)-3-(3-chloro-2-fluoro-phenyl)-4-cyano-5-(2,2-dimethyl-propyl)-pyrrolidine-2-carbonyl]-amino}-3-methoxy-benzoic acid 2-[(S)-3-methyl-2-((S)-2-tert-butoxycarbonyl-methylamino-propionylamino)-butyryloxy]-ethyl ester] | 7.70 | 
11 | COC(=O)COC(=O)c1ccc(NC(=O)[C@@H]2N[C@@H](CC(C)(C)C)[C@](C#N)(c3ccc(Cl)cc3F)[C@H]2c2cccc(Cl)c2F)c(OC)c1 [Example 35, 4-{[(2R,3S,4R,5S)-4-(4-Chloro-2-fluoro-phenyl)-3-(3-chloro-2-fluoro-phenyl)-4-cyano-5-(2,2-dimethyl-propyl)-pyrrolidine-2-carbonyl]-amino}-3-methoxy-benzoic acid methoxycarbonylmethyl ester] | 7.90 | 
12 | COc1cc(C(=O)OCCCC(=O)O)ccc1NC(=O)[C@@H]1N[C@@H](CC(C)(C)C)[C@](C#N)(c2ccc(Cl)cc2F)[C@H]1c1cccc(Cl)c1F [Example 36, 4-{[(2R,3S,4R,5S)-4-(4-Chloro-2-fluoro-phenyl)-3-(3-chloro-2-fluoro-phenyl)-4-cyano-5-(2,2-dimethyl-propyl)-pyrrolidine-2-carbonyl]-amino}-3-methoxy-benzoic acid 3-carboxy-propyl ester] |  | 8.30
13 | COc1cc(C(=O)OCCC(=O)OC(C)(C)C)ccc1NC(=O)[C@@H]1N[C@@H](CC(C)(C)C)[C@](C#N)(c2ccc(Cl)cc2F)[C@H]1c1cccc(Cl)c1F [Example 37, 4-{[(2R,3S,4R,5S)-4-(4-Chloro-2-fluoro-phenyl)-3-(3-chloro-2-fluoro-phenyl)-4-cyano-5-(2,2-dimethyl-propyl)-pyrrolidine-2-carbonyl]-amino}-3-methoxy-benzoic acid 2-tert-butoxycarbonyl-ethyl ester] | 7.80 | 
14 | COc1cc(C(=O)OCCC(=O)O)ccc1NC(=O)[C@@H]1N[C@@H](CC(C)(C)C)[C@](C#N)(c2ccc(Cl)cc2F)[C@H]1c1cccc(Cl)c1F [Example 38, 4-{[(2R,3S,4R,5S)-4-(4-Chloro-2-fluoro-phenyl)-3-(3-chloro-2-fluoro-phenyl)-4-cyano-5-(2,2-dimethyl-propyl)-pyrrolidine-2-carbonyl]-amino}-3-methoxy-benzoic acid 2-carboxy-ethyl ester] | 7.99 | 
15 | COc1cc(C(=O)NN)ccc1NC(=O)[C@@H]1N[C@@H](CC(C)(C)C)[C@](C#N)(c2ccc(Cl)cc2F)[C@H]1c1cccc(Cl)c1F [Example 39, (2R,3S,4R,5S)-4-(4-Chloro-2-fluoro-phenyl)-3-(3-chloro-2-fluoro-phenyl)-4-cyano-5-(2,2-dimethyl-propyl)-pyrrolidine-2-carboxylic acid (4-hydrazinocarbonyl-2-methoxy-phenyl)-amide] | 7.44 | 
16 | COc1cc(C(=O)O[C@@H]2O[C@H](C(=O)O)[C@@H](O)[C@H](O)[C@H]2O)ccc1NC(=O)[C@@H]1N[C@@H](CC(C)(C)C)[C@](C#N)(c2ccc(Cl)cc2F)[C@H]1c1cccc(Cl)c1F [Example 40, (2S,3S,4S,5R,6S)-6-(4-{[(2R,3S,4R,5S)-4-(4-Chloro-2-fluoro-phenyl)-3-(3-chloro-2-fluoro-phenyl)-4-cyano-5-(2,2-dimethyl-propyl)-pyrrolidine-2-carbonyl]-amino}-3-methoxy-benzoyloxy)-3,4,5-trihydroxy-tetrahydro-pyran-2-carboxylic acid; compound with trifluoro-acetic acid] | 8.21 | 
17 | COc1cc(C(=O)OC[C@H]2O[C@@H](O)[C@H](O)[C@@H](O)[C@@H]2O)ccc1NC(=O)[C@@H]1N[C@@H](CC(C)(C)C)[C@](C#N)(c2ccc(Cl)cc2F)[C@H]1c1cccc(Cl)c1F [Example 41, 4-{[(2R,3S,4R,5S)-4-(4-Chloro-2-fluoro-phenyl)-3-(3-chloro-2-fluoro-phenyl)-4-cyano-5-(2,2-dimethyl-propyl)-pyrrolidine-2-carbonyl]-amino}-3-methoxy-benzoic acid (2R,3S,4S,5R,6R)-3,4,5,6-tetrahydroxy-tetrahydro-pyran-2-ylmethyl ester; compound with trifluoro-acetic acid] | 8.16 | 
18 | COc1cc(C(=O)OCCOCCOCCOCCOCCOCCOCCOCCO)ccc1NC(=O)[C@@H]1N[C@@H](CC(C)(C)C)[C@](C#N)(c2ccc(Cl)cc2F)[C@H]1c1cccc(Cl)c1F [Example 42, 4-{[(2R,3S,4R,5S)-4-(4-Chloro-2-fluoro-phenyl)-3-(3-chloro-2-fluoro-phenyl)-4-cyano-5-(2,2-dimethyl-propyl)-pyrrolidine-2-carbonyl]-amino}-3-methoxy-benzoic acid, 2-(2-{2-[2-(2-{2-[2-(2-hydroxy-ethoxy)-ethoxy]-ethoxy}-ethoxy)-ethoxy]-ethoxy}-ethoxy)-ethyl ester, trifluoroacetate salt] | 7.65 | 
19 | COc1cc(C(=O)OCCOCCN(C)C)ccc1NC(=O)[C@@H]1N[C@@H](CC(C)(C)C)[C@](C#N)(c2ccc(Cl)cc2F)[C@H]1c1cccc(Cl)c1F [Example 46, 4-{[(2R,3S,4R,5S)-4-(4-Chloro-2-fluoro-phenyl)-3-(3-chloro-2-fluoro-phenyl)-4-cyano-5-(2,2-dimethyl-propyl)-pyrrolidine-2-carbonyl]-amino}-3-methoxy-benzoic acid 2-(2-dimethylamino-ethoxy)-ethyl ester, hydrochloride] | 7.85 | 
